Paper PMC9093646, “Physicochemical and Biochemical Evaluation of Amorphous Solid Dispersion of Naringenin Prepared Using Hot-Melt Extrusion” (Frontiers in Nutrition, 2022)
Converted amounts (≈) assume the structure as drawn.

Key:
[1] = Solubility test (HPLC); format: physicochemical; details: aqueous buffer, thermodynamic from solid, dissolution test solution 2 (pH 6.8), 37°C, read-out: water solubility
Experimental: The prepared NRG SD (500 mg; equivalent to 50 mg NRG) was added to 2.5 mL dissolution test solution 2. The mixture was shaken vigorously at 37°C for 30 min and centrifuged ([15], [17]). The supernatant was then passed through a 0.2-μm filter and subjected to high-performance liquid chromatography (HPLC) analysis. The NRG concentration was determined using an HPLC system fitted with the LC-20AD pump and the SPD-M20 detector (Shimadzu Corp., Kyoto, Japan) ([15]). A reverse-phase column (CAPCELL PAK C18 MGII; 4.6 mm × 100 mm; 5 μm; Shiseido Co., Ltd., Tokyo, Japan) was operated at 40°C. The mobile phase consisted of a methanol-water (45:55, v/v) mixture with 0.05% (v/v) phosphoric acid, and it was ultrasonically degassed before use. The flow rate was set at 1 mL/min, and the detection wavelength was set at 289 nm. The sample injection volume was 10 μL. The HPLC was calibrated using standard methanol-water (50:50, v/v) NRG solutions in the concentration range of 0.125–40 μg/mL.

[2] = Dissolution test, Japanese Pharmacopoeia paddle method; format: physicochemical; details: test solution 1 (pH 1.2), after 120 min
Experimental: The dissolution test was conducted using the paddle method described in the Japanese Pharmacopoeia ([26]). First, 900 mL dissolution test solution 1 or 2 was placed in the dissolution tester vessel and then 30 mg of crystalline NRG, 300 mg of PM, and 300 mg of SD were added to it. The temperature (37°C) and stirring rate (100 rpm) were maintained during the experiment. Samples were collected 2, 5, 10, 20, 30, 45, 60, 90, and 120 min after sample addition. The solutions were passed through 0.2-μm filters, and the filtrates were subjected to HPLC analysis.

[3] = Pharmacokinetics after oral administration; format: in vivo, rat; details: rats, equivalent to 100 mg/kg NRG
Experimental: Each solution was suspended in ion-exchange water immediately prior to administration. […] The blood was stored in heparinized hematocrit tubes, and the plasma was isolated by centrifugation. […] The samples were incubated at 37°C overnight and extracted using the same method that was employed for those containing the unchanged NRG. LC-MS/MS analysis was performed using an ACQUITY UPLC system (Waters Corp., Milford, MA, United States) fitted with a cooling autosampler and a column oven with temperature control. Mass spectrometry was performed using a Waters Xevo TQ-S tandem quadrupole mass spectrometer (QQ-MS; Waters Corp.). Chromatographic separation was performed on an ACQUITY UPLC BEH C18 1.7 μm column (50 mm × 2.1 mm; Waters Corp.). […] Positive electrospray ionization was used to generate the parental ions. Multiple reaction monitoring, using precursor → product ion transitions of m/z 273.04 → 152.97 and m/z 255.10 → 198.99, was used to quantify NRG and daidzein (internal standard), respectively.

[4] = Pharmacokinetics after intravenous administration of serum containing unchanged NRG and NRG metabolites; format: in vivo, rat; details: rats
Experimental: The same amount of NRG SD was intragastrically administered 5 min later. Blood was collected from the heart under isoflurane anesthesia 35 min after the first administration and stored at 4°C for several hours. Serum was then isolated by centrifugation and analyzed by liquid chromatography-tandem mass spectrometry (LC-MS/MS). […] Serum containing the unchanged NRG and NRG metabolites was administered via the tail vein at a dose of 500 μL/rat. […] The plasma was isolated by centrifugation. […] The mixture was centrifuged at 4°C, and 25 μL supernatant was collected and mixed with 75 μL of 30% (v/v) acetonitrile. […] The samples were incubated at 37°C overnight and extracted using the same method that was employed for those containing the unchanged NRG. LC-MS/MS analysis was performed using an ACQUITY UPLC system (Waters Corp., Milford, MA, United States) fitted with a cooling autosampler and a column oven with temperature control. Mass spectrometry was performed using a Waters Xevo TQ-S tandem quadrupole mass spectrometer (QQ-MS; Waters Corp.). Chromatographic separation was performed on an ACQUITY UPLC BEH C18 1.7 μm column (50 mm × 2.1 mm; Waters Corp.). […] The flow rate was set at 0.5 mL/min. The sample injection volume was 5 μL. […]. Positive electrospray ionization was used to generate the parental ions. Multiple reaction monitoring, using precursor → product ion transitions of m/z 273.04 → 152.97 and m/z 255.10 → 198.99, was used to quantify NRG and daidzein (internal standard), respectively.

[5] = tested on: acetic acid-induced writhing in rats; experiment: Acetic acid-induced writhing test; format: in vivo, rat; details: oral 5 min before i.p. acetic acid, counted over 25 min, crystalline NRG 100 mg/kg, NRG SD 30 or 100 mg/kg
Experimental: The acetic acid-induced writhing test was performed according to the method of Pinho-Ribeiro et al. ([8]) with modifications. Rats aged 5–7 weeks were fasted for 16 h and divided into four groups of eight animals per group. The first group was intragastrically administered 10 mL/kg saline as a control. The second group was intragastrically administered crystalline NRG at 100 mg/kg BW. The third and fourth groups were intragastrically administered NRG SD equivalent to 30 mg/kg and 100 mg/kg BW NRG, respectively. After 5 min, each rat was intraperitoneally injected with 10 mL/kg of 0.8% (v/v) acetic acid in saline solution. Visceral pain intensity was quantified by enumerating the abdominal writhing within 0–25 min after the stimulus. The writhing response was characterized by the contraction of abdominal muscles and stretching of the hind limbs.

[6] = design: method as in PMID 17047689; details: humans; cited from earlier work

solubility at 30 min [1]: 70 µg/mL (≈ 257 µM) | dissolved NRG [2]: 40% | AUC(0-t) ([3]; rat, plasma, po, 100 mg/kg, unchanged NRG in plasma, read-out: AUC0–1 h): 30 ± 10 ng·h/mL | AUC(0-t) ([3]; rat, plasma, po, 100 mg/kg, unchanged NRG in plasma, read-out: AUC0–t): 740 ± 240 ng·h/mL | bioavailability ([3]; rat, plasma, po, 100 mg/kg, unchanged NRG, read-out: F, absolute bioavailability): ~0.5% | AUC(0-inf) ([3]; rat, unchanged NRG in plasma): 740 ± 240 ng·h/mL | Cmax ([3]; rat, unchanged NRG in plasma): 130 ± 10 ng/mL | Tmax ([3]; rat, unchanged NRG in plasma): 4 ± 1.26 h | F, absolute bioavailability ([3]; unchanged NRG): 0.52 ± 0.17% | clearance ([4]; plasma, iv, i.v., serum 500 μL/rat, two-compartment model, read-out: CL, total body clearance (converted)): 2.67 mL/min | Vd ([4]; plasma, iv, i.v., serum 500 μL/rat, two-compartment model, read-out: Vd, volume of distribution): 0.19 ± 0.08 L/kg | k el ([4]; plasma, iv, i.v., serum 500 μL/rat, two-compartment model, read-out: ke, elimination rate constant (converted)): 0.00509 s⁻¹ | half-life ([4]; plasma, iv, i.v., serum 500 μL/rat, two-compartment model, read-out: t1/2, elimination half-life time (converted)): 0.99 ± 0.33 h | AUC(0-t) ([4]; plasma, iv, serum 500 μL/rat, two-compartment model): 120 ± 20 ng·h/mL | AUC(0-inf) ([4]; plasma, iv, serum with 34.8 μg/mL unchanged NRG and 134.5 μg/mL NRG metabolites, 500 μL/rat, two-compartment model): 130 ± 20 ng·h/mL
SMILES: O=C1C[C@@H](c2ccc(O)cc2)Oc2cc(O)cc(O)c21 [NRG, Naringenin]
distribution volume as share of the body weight ([4]; i.v.): ~20% | number of writhings compared to the control [5]: significantly decreased | cumulative urinary excretion rate relative to the oral NRG dose [6]: ~5.8%
